Like-named read-outs stand apart in the source and are kept apart here.
Key:
[1] = Mouse PK study (i.v. and p.o.); type: in vivo; details: plasma, male CD1 mice; for half-life: read-out: T1/2 (hr) i.v. (converted); for Vd: read-out: Vss; for bioavailability: 5 mg/kg p.o. vs 1 mg/kg i.v.
Description: Test compounds were dosed to male CD1 mice at 5 mg/kg by oral gavage (p.o.) or 1 mg/kg by intravenous injection (i.v.). Blood samples were taken at 0.083, 0.25, 0.5, 1.0, 3.0, 6.0 and 24 hours post i.v. dosing and at 0.25, 0.5, 1.0, 3.0, 6.0 and 24 hours post p.o. dosing. The plasma concentration of compounds were determined by HPLC.

α1β2γ2 GABAA receptor = biological target: T1, α1β2γ2 GABAA receptor (Homo sapiens, UniProt P14867+P47870); assay: Patch clamp electrophysiology assay of recombinant α1β2γ2 GABAA receptors (potentiation of 2 μM GABA-evoked Cl- current); type: cell-based; details: HEK293T cells stably transfected with α1β2γ2 GABAA; whole cell, 2 μM GABA, -80 mV
T1 construct: expressed in transfected cells
T1 sequence (P14867 28-456): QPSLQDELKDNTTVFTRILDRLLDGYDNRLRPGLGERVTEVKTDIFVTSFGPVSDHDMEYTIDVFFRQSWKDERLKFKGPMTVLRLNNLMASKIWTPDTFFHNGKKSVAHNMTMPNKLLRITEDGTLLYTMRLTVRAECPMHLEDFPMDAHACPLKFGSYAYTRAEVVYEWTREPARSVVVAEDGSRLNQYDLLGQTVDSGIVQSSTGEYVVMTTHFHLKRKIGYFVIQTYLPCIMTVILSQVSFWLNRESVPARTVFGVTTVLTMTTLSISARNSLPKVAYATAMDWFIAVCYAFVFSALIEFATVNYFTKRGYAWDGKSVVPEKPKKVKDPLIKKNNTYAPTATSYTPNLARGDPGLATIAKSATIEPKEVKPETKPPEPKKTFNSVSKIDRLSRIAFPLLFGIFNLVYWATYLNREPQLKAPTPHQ
T1 sequence (P47870 25-512 limits assumed): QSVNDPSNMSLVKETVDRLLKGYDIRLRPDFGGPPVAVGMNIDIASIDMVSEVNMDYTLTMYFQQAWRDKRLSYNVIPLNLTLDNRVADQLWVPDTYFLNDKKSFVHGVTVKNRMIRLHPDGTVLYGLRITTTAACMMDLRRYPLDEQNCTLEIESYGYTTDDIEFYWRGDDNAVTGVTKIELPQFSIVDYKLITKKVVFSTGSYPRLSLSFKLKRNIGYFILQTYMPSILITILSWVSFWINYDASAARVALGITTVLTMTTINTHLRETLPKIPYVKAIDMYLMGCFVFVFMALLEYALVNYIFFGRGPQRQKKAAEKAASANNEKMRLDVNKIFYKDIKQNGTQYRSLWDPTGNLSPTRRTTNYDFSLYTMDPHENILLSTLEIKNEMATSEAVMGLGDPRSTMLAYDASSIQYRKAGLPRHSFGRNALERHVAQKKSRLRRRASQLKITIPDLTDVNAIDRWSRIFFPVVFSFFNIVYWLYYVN
T1 sequence (P18507 40-475 partner): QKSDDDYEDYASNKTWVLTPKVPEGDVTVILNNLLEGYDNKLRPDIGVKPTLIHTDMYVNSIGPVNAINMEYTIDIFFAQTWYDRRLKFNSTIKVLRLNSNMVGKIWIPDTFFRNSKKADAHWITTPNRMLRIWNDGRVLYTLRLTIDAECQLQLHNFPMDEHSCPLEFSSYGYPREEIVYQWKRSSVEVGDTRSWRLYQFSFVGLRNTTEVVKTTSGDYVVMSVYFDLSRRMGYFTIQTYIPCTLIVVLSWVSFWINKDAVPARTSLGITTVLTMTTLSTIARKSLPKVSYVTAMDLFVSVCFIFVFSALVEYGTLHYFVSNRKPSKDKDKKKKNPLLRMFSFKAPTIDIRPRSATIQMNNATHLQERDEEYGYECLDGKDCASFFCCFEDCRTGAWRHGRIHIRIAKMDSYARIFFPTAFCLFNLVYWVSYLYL
Description: Cellular electrophysiology is used to measure the pharmacological properties of GABAA receptor modulators in heterologous cell systems. Each compound is tested for its ability to affect GABA mediated currents at a submaximal agonist dose (GABA EC20=2 μM). HEK293T cells are stably transfected with the α1β2γ2 subunits of the GABAA receptor. Flasks or dishes of HEK293 GABAA cells were maintained in the medium (DMEM, 11% (v/v) heat inactivated FBS, 100 or 200 μg/ml G418, 40 μg/ml Hygromycin B, 80 μg/ml Zeocin) and incubated at 37° C. in a humidified incubator with 5% CO2. 12 to 24 hours prior to electrophysiological recordings, the cells were plated on glass cover slips placed in culture dishes and maintained under the same incubation and media conditions. The number of cells being plated on the cover slip should reach a confluence rate at which majority of the cells are single.
For the electrophysiological recordings in the study the following external and internal solutions were used (Table 1):
HEKA EPC 10 USB patch clamp amplifier (from HEKA Elektronik, Germany) was used in the whole cell recording. A cover slip with plenty of single HEK293T-GABAA cells on the surface was removed and placed into a continuously perfused (approximately 1-2 ml/minute) recording chamber mounted on an inverted microscope. GABAA Cl^− current was recorded from single cell using standard whole cell recording techniques. 2 μM GABA was used to evoke GABAA Cl^− current (2 μM of GABA was the EC10-EC20 value of agonist GABA obtained internally on the stable GABAA cells used in this study). After achieving break-in (whole-cell) configuration, the cell was voltage clamped at a holding potential of −80 mV. Only stable cells meeting the recording parameters (membrane resistance Rm>500 MΩ, access resistance (Ra)<15 MΩ, leak current<100 pA in 90% of the recording time) were used. 2 μM GABA was applied to the cell to induce stable Cl^− current first as control for about 2 seconds, test compounds (i.e., compounds of formula (AI), (I), (AII), and (II), or any subgenera thereof) were followed to be applied to the cells for 3 min, then 2 μM GABA was applied to observe the potentiation effect on the GABAA Cl^− current. Different doses of test compound from low to high were applied to the same cell when the cell was stable. A cell was considered stable when current size evoked by 2 μM GABA applied to the cell from time to time was similar. To minimize the possible desensitation of GABAA Cl^− current, duration between applications of test articles was set to 180 seconds.
Test compounds were dissolved in DMSO to form stock solutions (10 mM). Test compounds were diluted to 0.003, 0.01, 0.03, 0.1, 0.3, 1, 3 and 10 μM in bath solution. AU concentrations of test articles were tested on each cell. Data were analyzed using software provided by HEKA, Microsoft Excel and Graphpad Prism (Table 2).

PTZ-treated mice = assay: Acute PTZ (pentylenetetrazol-induced seizure) assay; type: in vivo, Male CD-1 mice; details: 3 mg/kg oral gavage 60 min prior to PTZ 120 mg/kg s.c.; observed 30 min
Description: The anticonvulsant effect of test compounds were assessed in the pentylenetetazol-induced seizure assay in mice similar to methods described in Giardina & Gasior (2009) Curr Protoc Pharmacol., Chapter 5. Male CD-1 mice were housed in groups of five under controlled conditions (temperature of 22±2° C. and 12:12 light-dark cycle, lights on at 8:00 am) and water and food were available ad libitum. The mice were housed for 1 week prior to behavioral testing, at which time they weighed 25-35 g. Pentylenetetrazol (PTZ, Sigma) was dissolved in sterile 0.9% saline at a concentration of 12 mg/mL concentration for subcutaneous administration. Test compounds were formulated and administered via oral gavage at 60 minutes prior to PTZ injection. AU solutions were made fresh and were given in a volume of 10 ml/kg body weight.
Mice were acclimated to the test room for at least 30 min before compound administration. Mice were randomized into at least four test groups (vehicle and at least three doses of the test compound) with 10 mice per group. […] Following the drug pretreatment time, the mice were injected s.c. with PTZ (120 mg/kg). Immediately following the PTZ injection, mice were individually placed into observation chambers (25×15×15 cm) and a three-channel timer was started. Each mouse was continuously observed for 30 min and the following behaviors were recorded by observers blinded to the treatments: 1) latency to clonic convulsions that persist for 3 sec and followed by an absence of righting reflex 2) latency to tonic convulsions, characterized by the rigid extension of all four limbs that exceeded a 90 degree angle with the body 3) latency to death 4) number of clonic and tonic convulsions. Data are presented as mean±S.E.M and one-way analysis of variance with Dunnetfs or Bonferroni's post-hoc test was used to detect significant differences in latency and number between the vehicle and dose group, p values<0.05 were regarded as statistically significant.

[2] = iv, 1 mg/kg i.v., read-out: AUClast (hr*ng/mL) i.v.
[3] = po, 5 mg/kg p.o., read-out: AUClast (hr*ng/mL) p.o.

| Structure (SMILES) | clearance ([1]; iv, 1 mg/kg i.v.) [mL/min/kg] | AUC(0-t) [1, 2] [ng·h/mL] | half-life ([1]; iv, 1 mg/kg i.v.) [h] | Vd ([1]; iv, 1 mg/kg i.v.) [L/kg] | Cmax ([1]; po, 5 mg/kg p.o.) [ng/mL] | Tmax ([1]; po, 5 mg/kg p.o.) [h] | bioavailability ([1]; po) [%] | AUC(0-t) [1, 3] [ng·h/mL] | EC50 (α1β2γ2 GABAA receptor) [nM] | Clonic Seizure Latency (sec) (Mean) (PTZ-treated mice) | Clonic Seizure Number (Mean) (PTZ-treated mice) | Mortality (%) (PTZ-treated mice) | Onset of death (sec) (Mean) (PTZ-treated mice) | Tonic Seizure Latency (sec) (Mean) (PTZ-treated mice) | Tonic Seizure Number (Mean) (PTZ-treated mice) |
| --- | --- | --- | --- | --- | --- | --- | --- | --- | --- | --- | --- | --- | --- | --- | --- |
| C[C@@]1(O)CC[C@H]2[C@H](CC[C@@H]3[C@@H]2CC[C@]2(C)[C@@H](C(=O)Cn4nnn(-c5cn[nH]c5)c4=O)CC[C@@H]32)C1 [Example 28, 1-(2-((3R,5R,8R,9R,10S,13S,14S,17S)-3-hydroxy-3,13-dimethylhexadecahydro-1H-cyclopenta[a]phenanthren-17-yl)-2-oxoethyl)-4-(1H-pyrazol-4-yl)-1,4-dihydro-5H-tetrazol-5-one] | 7.17 | 2180 | 6.12 | 2.9 | 563 | 6 | 77.3 | 8420 | 140 | 573.1 ± 124.9 s | 1.7 ± 0.3 | 40 | 1594.7 ± 107.0 s | 1586.3 ± 109.8 s | 0.4 ± 0.2 |
| Cn1nnn(CC(=O)[C@H]2CC[C@H]3[C@@H]4CC[C@@H]5C[C@](C)(O)CC[C@@H]5[C@H]4CC[C@]23C)c1=O [Example 2, 1-(2-((3R,5R,8R,9R,10S,13S,14S,17S)-3-hydroxy-3,13-dimethylhexadecahydro-1H-cyclopenta[a]phenanthren-17-yl)-2-oxoethyl)-4-methyl-1,4-dihydro-5H-tetrazol-5-one] | 10.7 | 1480 | 1.46 | 1.16 | 1380 | 1 | 66.3 | 4900 | 110 | 1085.4 ± 184.6 s | 0.7 ± 0.2 | 0.0 | 1800 + 0.0 sec | 1800 + 0.0 sec | 0.0 + 0.0 |
| C[C@@]1(O)CC[C@H]2[C@H](CC[C@@H]3[C@@H]2CC[C@]2(C)[C@@H](C(=O)Cn4nnn(-c5ccccc5)c4=O)CC[C@@H]32)C1 [Example 10, 1-(2-((3R,5R,8R,9R,10S,13S,14S,17S)-3-hydroxy-3,13-dimethylhexadecahydro-1H-cyclopenta[a]phenanthren-17-yl)-2-oxoethyl)-4-phenyl-1,4-dihydro-5H-tetrazol-5-one] | 9 | 1840 | 4.22 | 2.16 | 491 | 3 | 60.5 | 5510 | 27 | 1485 + 210.2 sec | 0.3 ± 0.2 | 0.0 | 1800 + 0.0 sec | 1800 + 0.0 sec | 0.0 + 0.0 |
| C[C@@]1(O)CC[C@H]2[C@H](CC[C@@H]3[C@@H]2CC[C@]2(C)[C@@H](C(=O)Cn4nnn(-c5ccc(C#N)cc5)c4=O)CC[C@@H]32)C1 [Example 13, 4-(4-(2-((3R,5R,8R,9R,10S,13S,14S,17S)-3-hydroxy-3,13-dimethylhexadecahydro-1H-cyclopenta[a]phenanthren-17-yl)-2-oxoethyl)-5-oxo-4,5-dihydro-1H-tetrazol-1-yl)benzonitrile] | 5.67 | 2640 | 8.03 | 2.94 | 479 | 1 | 41.5 | 5760 | 13 | 1012 + 263.6 sec | 0.7 ± 0.3 | 0.0 | 1800 + 0.0 sec | 1800 + 0.0 sec | 0.0 + 0.0 |
| Cn1nccc1-n1nnn(CC(=O)[C@H]2CC[C@H]3[C@@H]4CC[C@@H]5C[C@](C)(O)CC[C@@H]5[C@H]4CC[C@]23C)c1=O [Example 26, 1-(2-((3R,5R,8R,9R,10S,13S,14S,17S)-3-hydroxy-3,13-dimethylhexadecahydro-1H-cyclopenta[a]phenanthren-17-yl)-2-oxoethyl)-4-(1-methyl-1H-pyrazol-5-yl)-1,4-dihydro-5H-tetrazol-5-one] | 15.7 | 1010 | 1.39 | 1.75 | 827 | 1 | 77.1 | 3910 | 64 | 1547.8 ± 139.2 s | 0.3 ± 0.2 | 0.0 | 1800 + 0.0 sec | 1800 + 0.0 sec | 0.0 + 0.0 |
| C[C@@]1(O)CC[C@H]2[C@H](CC[C@@H]3[C@@H]2CC[C@]2(C)[C@@H](C(=O)Cn4nnn(-c5ccncc5)c4=O)CC[C@@H]32)C1 [Example 17, 1-(2-((3R,5R,8R,9R,10S,13S,14S,17S)-3-hydroxy-3,13-dimethylhexadecahydro-1H-cyclopenta[a]phenanthren-17-yl)-2-oxoethyl)-4-(pyridin-4-yl)-1,4-dihydro-5H-tetrazol-5-one] | 43.5 | 381 | 0.84 | 2.12 | 227 | 3 | 101 | 1930 | 38 | 1441 + 184.6 sec | 0.3 ± 0.2 | 0.0 | 1800 + 0.0 sec | 1800 + 0.0 sec | 0.0 + 0.0 |

— patent publication US20220089636A1, “TETRAZOLONE SUBSTITUTED STEROIDS AND USE THEREOF” (Beijing Xuanyi PharmaSciences Co., Ltd., priority 2019, published 2022)
